Assay results reported in US5795615A, “Process for producing metal carboxylates for use as animal feed supplements” (priority 1995, dated 1998).

Columns and labels:
[1] = Comparative zinc bioavailability: growth parameters and zinc levels in blood and tibia ash of broilers; conditions: for Relative Biological Availability (%): Ending body weight (lbs) 21 days / Relative Biological Availability (%): Body weight gain (lbs) 21 days: broilers fed 21 days; for Relative Biological Availability (%): Ending body weight (lbs) 21 days: relative to zinc sulfate arbitrarily set at 100%, superscripts: means in a row without common superscript differ (P < 0.05, LSD)
Description: Each zinc treatment was replicated eight times and each pen contained ten male birds.
Basal feeds and zinc compound were mixed in a horizontal feed mixer providing the desired ingredient composition as shown in Table 4. The broilers were fed the rations for 21 days. Feed weights were taken during the trial. Body weights were measured at the beginning and at the end of the trial. On day 21, zinc levels in the blood and tibia ash were determined. The assay procedures for total tibia zinc content or concentration to assess zinc utilization are similar to those used by Wedekind et al., J. Anim. Sci., 70:178-187 (1992). The data were analyzed according to the SAS statistical package.
Chick growth parameters and zinc levels in the blood and tibia ash were used as criteria to determine the biological availability of zinc. […] The biological availability of zinc sulfate was arbitrarily set at 100%.

[2] = cited from earlier work
[3] = relative to zinc sulfate set at 100%, superscripts: P < 0.05, LSD
[4] = broilers, relative to zinc sulfate set at 100%, superscripts: P < 0.05, LSD
[5] = broilers, day 21, relative to zinc sulfate set at 100%, superscripts: P < 0.05, LSD

SMILES: O=S(=O)([O-])[O-].[Zn+2] [Sulfate, zinc sulfate, reference compound]
- Relative Biological Availability (%): Ending body weight (lbs) 21 days [1]: 100.00%
- Relative Biological Availability (%): Body weight gain (lbs) 21 days [1, 3]: 100.00%
- Relative Biological Availability (%): Feed conversion (corr.) 3-21 days [1, 4]: 100.00%
- Relative Biological Availability (%): Bone ash (%) 21 days [1, 5]: 100.00%
- Relative Biological Availability (%): Plasma Zinc (μg/ml) ([1]; chicken, in vivo, 30240 min): 100.00%
- Relative Biological Availability (%): Tibia ash zinc (μg/g) ([1]; chicken, in vivo, 30240 min): 100.00%

SMILES: CSCC[C@H](N)C(=O)O.O=S(=O)([O-])O.O=S(=O)([O-])O.[Zn+2] [Zinpro ®, Zinc methionine bisulfate]
- ending body weights compared with zinc sulfate ([1]; both the 10 mg/kg and 20 mg/kg levels): statistically significant higher ending body weights
- Relative Biological Availability (%): Ending body weight (lbs) 21 days [1]: 132.46%
- Relative Biological Availability (%): Body weight gain (lbs) 21 days [1, 3]: 131.52%
- Relative Biological Availability (%): Feed conversion (corr.) 3-21 days [1, 4]: 90.38%
- Relative Biological Availability (%): Plasma Zinc (μg/ml) ([1]; broilers, day 21, plasma, relative to zinc sulfate set at 100%, superscripts: P < 0.05, LSD): 124.00%
- Relative Biological Availability (%): Tibia ash zinc (μg/g) ([1]; broilers, day 21, tibia ash, relative to zinc sulfate set at 100%, superscripts: P < 0.05, LSD): 123.99%
- Relative Biological Availability (%): Bone ash (%) 21 days [1, 5]: 113.95%
- levels of zinc in the blood and tibia ash on day 21 ([1]; day 21, zinc propionate versus zinc methionine): comparable levels of zinc

SMILES: [O]=[Zn] [Zinc oxide, zinc oxide]
- solubility in water [2]: 0.00016 g/100 ml
